We go through 27 compounds from BindingDB's records for doi:10.1016/j.bmc.2005.09.055 (Uk Centre For Cancer Therapeutics, 2006).

The target in experiment [1] is RAC-beta serine/threonine-protein kinase (Homo sapiens, UniProt P31751). Briefly: PKB In Vitro Enzyme Assay.
The target of experiment [2] is cAMP-dependent protein kinase catalytic subunit alpha (Bos taurus, UniProt P00517). In words: PKA In Vitro Enzyme Assay.

RAC-beta serine/threonine-protein kinase, sequence (P31751 whole entry): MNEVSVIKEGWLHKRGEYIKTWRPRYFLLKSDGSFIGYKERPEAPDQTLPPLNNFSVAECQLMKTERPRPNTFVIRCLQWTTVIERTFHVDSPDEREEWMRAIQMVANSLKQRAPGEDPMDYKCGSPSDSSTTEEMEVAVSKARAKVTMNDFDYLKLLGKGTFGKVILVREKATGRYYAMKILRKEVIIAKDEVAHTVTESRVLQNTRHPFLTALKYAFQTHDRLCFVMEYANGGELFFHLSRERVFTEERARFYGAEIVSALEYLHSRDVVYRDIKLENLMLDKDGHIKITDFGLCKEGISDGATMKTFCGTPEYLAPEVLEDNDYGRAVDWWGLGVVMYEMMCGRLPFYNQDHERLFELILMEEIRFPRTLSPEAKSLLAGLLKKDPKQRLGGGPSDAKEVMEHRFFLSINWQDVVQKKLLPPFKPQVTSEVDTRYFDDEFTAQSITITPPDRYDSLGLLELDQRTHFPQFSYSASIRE

One may read the IC50 as the concentration at which inhibition is half-maximal. Higher therefore signals weaker potency in that assay. `O=S(=O)(NCCNCCOCc1ccc(Cl)c(Cl)c1)c1cccc2cnccc12` [Isoquinoline-5-sulfonic acid (2-(2-(3,4-dichlorobenzyloxy)ethylamino)ethyl)amide] displayed an IC50 in experiment [1] (pH 7.2, 22 °C) of 210 nM.

Regarding `O=S(=O)(NCCNCCOCc1cccc(Cl)c1)c1cccc2cnccc12` [Isoquinoline-5-sulfonic acid (2-(2-(3-chlorobenzyloxy)ethylamino)ethyl)amide], the IC50 in experiment [1] (pH 7.2, 22 °C) was 370 nM; in experiment [2] (pH 7.2, 22 °C), 410 nM. As for `COc1cccc(COCCNCCNS(=O)(=O)c2cccc3cnccc23)c1` [Isoquinoline-5-sulfonic acid (2-(2-(3-methoxybenzyloxy)ethylamino)ethyl)amide], 2200 nM corresponded to half-maximal inhibition in experiment [1] (pH 7.2, 22 °C) (IC50).

In experiment [1] (pH 7.2, 22 °C), `Cc1ccc(COCCNCCNS(=O)(=O)c2cccc3cnccc23)cc1` [Isoquinoline-5-sulfonic acid (2-(2-(4-methylbenzyloxy)ethylamino)ethyl)amide] had an IC50 of 1530 nM. Take `O=S(=O)(NC[C@H]1CC[C@@H](COCc2ccc(Cl)cc2)N1)c1cccc2cnccc12` [Isoquinoline-5-sulfonic acid (2R*,5S*)-(5-(4-chlorobenzyloxymethyl)pyrrolidin-2-yl-methyl)amide]: the midpoint of inhibition in experiment [1], the IC50, lay at 1700 nM. On to `O=S(=O)(NC[C@@H]1C[C@@H](OCc2ccc(Cl)cc2)CN1)c1cccc2cnccc12` [Isoquinoline-5-sulfonic acid (2S,4R)-(4-(4-chlorobenzyloxy)pyrrolidin-2-yl-methyl)amide], for which the IC50 worked out at 1700 nM in experiment [1] and 400 nM in experiment [2].

The compound `O=S(=O)(NC[C@@H]1C[C@H](OCc2ccccc2)CN1)c1cccc2cnccc12` [Isoquinoline-5-sulfonic acid (2S,4S)-(4-(benzyloxy)pyrrolidin-2-yl-methyl)amide] came in with an IC50 in experiment [1] of 3400 nM. As to `O=S(=O)(NCC1CCNCC1)c1cccc2cnccc12` [Isoquinoline-5-sulfonic acid (piperidin-4-ylmethyl)amide], inhibition in experiment [1] was half-maximal at 57000 nM (IC50). The compound `O=S(=O)(c1cccc2cnccc12)N1CCNCC1` [Isoquinoline-5-sulfonic acid piperazin-1 ylamide] returned a half-maximal inhibitory concentration (IC50) in experiment [1] (pH 7.2, 22 °C) of 23000 nM. As for `O=S(=O)(NC1CCNC1)c1cccc2cnccc12` (stereo unspecified) [Isoquinoline-5-sulfonic acid pyrrolidin-3-ylamide], it took 3900 nM to reach half-maximal inhibition in experiment [1] (IC50).

For `N[C@H]1CC[C@H](NS(=O)(=O)c2cccc3cnccc23)CC1` [Isoquinoline-5-sulfonic acid trans-(4-aminocyclohexyl)amide], the values for the concentration for half-maximal inhibition (IC50) in experiment [1] and in experiment [2] were 8100 nM and 5700 nM, respectively. In turn, `O=S(=O)(NCCNCCOCc1ccccc1)c1cccc2cnccc12` [N-(2-{[2-(benzyloxy)ethyl]amino}ethyl)isoquinoline-5-sulfonamide] returned a concentration for half-maximal inhibition (IC50) in experiment [1] (pH 7.2, 22 °C) of 1170 nM. On the same count and under the same terms, the result for `NCCCNS(=O)(=O)c1cccc2cnccc12` [N-(3-aminopropyl)isoquinoline-5-sulfonamide] reads 4800 nM. `O=S(=O)(NC1CCNCC1)c1cccc2cnccc12` [N-(piperidin-4-yl)isoquinoline-5-sulfonamide]: the half-inhibitory concentration (IC50) is 8700 nM in experiment [1] (pH 7.2, 22 °C) and 3900 nM in experiment [2] (pH 7.2, 22 °C). The compound `CNCCNS(=O)(=O)c1cccc2cnccc12` [N-[2-(methylamino)ethyl]isoquinoline-5-sulfonamide] showed a half-maximal inhibitory concentration (IC50) in experiment [1] of 7600 nM. As for `O=S(=O)(NCCNCCOCc1ccccc1Cl)c1cccc2cnccc12` [N-[2-({2-[(2-chlorophenyl)methoxy]ethyl}amino)ethyl]isoquinoline-5-sulfonamide], the IC50 turned out to be 960 nM in experiment [1] (pH 7.2, 22 °C) and 1000 nM in experiment [2] (pH 7.2, 22 °C).

`COc1ccccc1COCCNCCNS(=O)(=O)c1cccc2cnccc12` [N-[2-({2-[(2-methoxyphenyl)methoxy]ethyl}amino)ethyl]isoquinoline-5-sulfonamide]: the IC50 in experiment [1] (pH 7.2, 22 °C) came out at 6600 nM. `Cc1ccccc1COCCNCCNS(=O)(=O)c1cccc2cnccc12` [N-[2-({2-[(2-methylphenyl)methoxy]ethyl}amino)ethyl]isoquinoline-5-sulfonamide]: in experiment [1] (pH 7.2, 22 °C), the IC50 amounted to 570 nM. As for `Cc1cccc(COCCNCCNS(=O)(=O)c2cccc3cnccc23)c1` [N-[2-({2-[(3-methylphenyl)methoxy]ethyl}amino)ethyl]isoquinoline-5-sulfonamide], the IC50 in experiment [1] (pH 7.2, 22 °C) turned out to be 1100 nM.

Turning to `COc1ccc(COCCNCCNS(=O)(=O)c2cccc3cnccc23)cc1` [N-[2-({2-[(4-methoxyphenyl)methoxy]ethyl}amino)ethyl]isoquinoline-5-sulfonamide], the IC50 in experiment [1] (pH 7.2, 22 °C) worked out at 2900 nM. Regarding `O=S(=O)(N[C@H]1CC[C@H](NCc2ccccc2)CC1)c1cccc2cnccc12` [N-[4-(benzylamino)cyclohexyl]isoquinoline-5-sulfonamide], in experiment [1], the half-maximal inhibitory concentration (IC50) amounted to 6600 nM.

The compound `O=S(=O)(NC[C@@H]1CCCN1)c1cccc2cnccc12` [N-[(2S)-pyrrolidin-2-ylmethyl]isoquinoline-5-sulfonamide] yielded an IC50 in experiment [1] of 39000 nM. On the same count and under the same terms, the result for `O=S(=O)(N[C@H]1CN[C@H](COCc2ccc(Cl)cc2)C1)c1cccc2cnccc12` [N-[(3R,5S)-5-{[(4-chlorophenyl)methoxy]methyl}pyrrolidin-3-yl]isoquinoline-5-sulfonamide] reads 5200 nM. As for `O=c1[nH]ccc2c(S(=O)(=O)N[C@@H]3CN[C@H](COCc4ccc(Cl)cc4)C3)cccc12` [N-[(3S,5S)-5-{[(4-chlorophenyl)methoxy]methyl}pyrrolidin-3-yl]-1-hydroxyisoquinoline-5-sulfonamide], the 50% inhibitory concentration (IC50) amounted to 520 nM in experiment [1] and 1300 nM in experiment [2]. Consider `Cc1cncc2cccc(S(=O)(=O)N[C@@H]3CN[C@H](COCc4ccc(Cl)cc4)C3)c12` [N-[(3S,5S)-5-{[(4-chlorophenyl)methoxy]methyl}pyrrolidin-3-yl]-4-methylisoquinoline-5-sulfonamide], for which the IC50 in experiment [1] stood at 2600 nM; in experiment [2], 320 nM. The corresponding values for `O=S(=O)(N[C@@H]1CN[C@H](COCc2ccc(Cl)cc2)C1)c1cccc2cnccc12` [N-[(3S,5S)-5-{[(4-chlorophenyl)methoxy]methyl}pyrrolidin-3-yl]isoquinoline-5-sulfonamide] are 780 nM and 420 nM. The corresponding values for `O=S(=O)(NC[C@@H]1C[C@H](OCc2ccc(Cl)cc2)CN1)c1cccc2cnccc12` [N-{[(2S,4S)-4-[(4-chlorophenyl)methoxy]pyrrolidin-2-yl]methyl}isoquinoline-5-sulfonamide] are 480 nM and 170 nM.
